Drawing on ChEMBL document CHEMBL1201862, “PubChem BioAssay data set” (2004), this text covers IC50, AC50 and EC50 for three compounds.

Assay [1] is described as follows: Luminescence-based counterscreen assay for KLF5 inhibitors: dose response cell-based high throughput screening assay to identify cytotoxic compounds using the IEC-6 intestinal epithelial cell line. [Related pubchem assays: 1700 (Primary screen.), 1834 (Confirmation screen.), 1858 (Summary AID.), 1905 (Counterscreen.)]. Type of assay: functional. For orientation: The purpose of a counterscreen is to sort out artefacts and off-target activity.

For assay [2], the target named is T1, Replicative DNA helicase DnaB (Mycobacterium tuberculosis, UniProt P9WMR3).
T1 sequence (P9WMR3 whole entry): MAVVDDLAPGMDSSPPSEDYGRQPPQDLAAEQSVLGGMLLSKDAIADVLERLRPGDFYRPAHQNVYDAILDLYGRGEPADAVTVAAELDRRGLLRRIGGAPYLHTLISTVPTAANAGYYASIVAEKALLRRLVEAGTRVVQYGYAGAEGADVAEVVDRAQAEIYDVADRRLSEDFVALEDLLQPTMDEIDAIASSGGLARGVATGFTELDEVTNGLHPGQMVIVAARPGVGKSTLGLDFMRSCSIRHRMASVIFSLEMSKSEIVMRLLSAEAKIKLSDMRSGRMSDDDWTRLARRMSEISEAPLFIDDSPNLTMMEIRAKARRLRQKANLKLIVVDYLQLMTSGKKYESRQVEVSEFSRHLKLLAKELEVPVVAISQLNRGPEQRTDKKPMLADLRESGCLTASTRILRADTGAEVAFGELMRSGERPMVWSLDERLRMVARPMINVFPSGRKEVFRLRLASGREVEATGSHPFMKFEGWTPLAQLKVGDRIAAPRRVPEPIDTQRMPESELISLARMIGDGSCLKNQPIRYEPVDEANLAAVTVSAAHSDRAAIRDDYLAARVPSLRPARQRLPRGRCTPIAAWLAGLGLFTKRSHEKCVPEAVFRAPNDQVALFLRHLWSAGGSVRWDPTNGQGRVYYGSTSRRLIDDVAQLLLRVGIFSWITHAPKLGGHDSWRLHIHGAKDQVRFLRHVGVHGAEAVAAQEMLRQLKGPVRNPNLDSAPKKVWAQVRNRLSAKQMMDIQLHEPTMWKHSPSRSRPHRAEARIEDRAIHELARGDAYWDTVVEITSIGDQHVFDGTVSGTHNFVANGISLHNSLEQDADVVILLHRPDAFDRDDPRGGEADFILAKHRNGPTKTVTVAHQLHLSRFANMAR
The experiment in a line: DnaB intein splicing inhibitors, dose response, biochemical, cell-free fluorescence (AID 449749). Type of assay: functional.

Assay [3] concerns the target T2, Mannose-6-phosphate isomerase (Homo sapiens, UniProt P34949).
T2 sequence (P34949 whole entry): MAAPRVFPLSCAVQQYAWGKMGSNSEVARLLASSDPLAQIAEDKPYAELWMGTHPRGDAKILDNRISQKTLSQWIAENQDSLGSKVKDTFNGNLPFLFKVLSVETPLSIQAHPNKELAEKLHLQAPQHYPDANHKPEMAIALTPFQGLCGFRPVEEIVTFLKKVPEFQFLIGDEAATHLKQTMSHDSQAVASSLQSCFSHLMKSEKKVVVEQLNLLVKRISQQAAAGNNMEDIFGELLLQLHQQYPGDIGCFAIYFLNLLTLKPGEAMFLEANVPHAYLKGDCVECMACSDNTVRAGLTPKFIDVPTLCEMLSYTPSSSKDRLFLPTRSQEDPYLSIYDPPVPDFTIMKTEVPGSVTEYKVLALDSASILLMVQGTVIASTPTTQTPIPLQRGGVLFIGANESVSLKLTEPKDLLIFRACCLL
The experiment in a line: MPI enzyme activity inhibition – biochemical, fluorescence intensity, coupled assay, primary screen (AID 1209).

The target in another assay is T3, Protein skinhead-1 (Caenorhabditis elegans, UniProt P34707).
T3 sequence (P34707 whole entry): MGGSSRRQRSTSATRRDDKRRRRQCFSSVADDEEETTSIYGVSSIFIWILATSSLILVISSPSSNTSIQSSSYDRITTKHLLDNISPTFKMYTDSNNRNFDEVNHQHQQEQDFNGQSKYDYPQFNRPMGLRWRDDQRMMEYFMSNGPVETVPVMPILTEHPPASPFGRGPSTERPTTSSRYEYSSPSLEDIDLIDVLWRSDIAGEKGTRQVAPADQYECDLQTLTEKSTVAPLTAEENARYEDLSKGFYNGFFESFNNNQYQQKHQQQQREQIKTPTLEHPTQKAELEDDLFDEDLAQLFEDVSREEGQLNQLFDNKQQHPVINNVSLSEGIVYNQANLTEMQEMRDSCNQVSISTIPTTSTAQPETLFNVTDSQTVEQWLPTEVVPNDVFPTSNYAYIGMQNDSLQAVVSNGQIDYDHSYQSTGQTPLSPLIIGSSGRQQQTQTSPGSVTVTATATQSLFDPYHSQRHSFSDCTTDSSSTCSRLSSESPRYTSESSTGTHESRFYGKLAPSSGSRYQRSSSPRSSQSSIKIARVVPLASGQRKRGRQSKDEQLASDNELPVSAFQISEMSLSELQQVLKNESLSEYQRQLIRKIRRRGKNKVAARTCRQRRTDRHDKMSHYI
Type of assay: functional.

Assay [4] concerns the target T2, Mannose-6-phosphate isomerase. The experiment in a line: MPI inhibition at elevated mannose 6-phosphate – biochemical, fluorescence intensity, high mannose 6-phosphate, primary screen (AID 1220).
In the next assay the target is T4, Protein RecA (Mycobacterium tuberculosis, UniProt P9WHJ3).
T4 sequence (P9WHJ3 whole entry): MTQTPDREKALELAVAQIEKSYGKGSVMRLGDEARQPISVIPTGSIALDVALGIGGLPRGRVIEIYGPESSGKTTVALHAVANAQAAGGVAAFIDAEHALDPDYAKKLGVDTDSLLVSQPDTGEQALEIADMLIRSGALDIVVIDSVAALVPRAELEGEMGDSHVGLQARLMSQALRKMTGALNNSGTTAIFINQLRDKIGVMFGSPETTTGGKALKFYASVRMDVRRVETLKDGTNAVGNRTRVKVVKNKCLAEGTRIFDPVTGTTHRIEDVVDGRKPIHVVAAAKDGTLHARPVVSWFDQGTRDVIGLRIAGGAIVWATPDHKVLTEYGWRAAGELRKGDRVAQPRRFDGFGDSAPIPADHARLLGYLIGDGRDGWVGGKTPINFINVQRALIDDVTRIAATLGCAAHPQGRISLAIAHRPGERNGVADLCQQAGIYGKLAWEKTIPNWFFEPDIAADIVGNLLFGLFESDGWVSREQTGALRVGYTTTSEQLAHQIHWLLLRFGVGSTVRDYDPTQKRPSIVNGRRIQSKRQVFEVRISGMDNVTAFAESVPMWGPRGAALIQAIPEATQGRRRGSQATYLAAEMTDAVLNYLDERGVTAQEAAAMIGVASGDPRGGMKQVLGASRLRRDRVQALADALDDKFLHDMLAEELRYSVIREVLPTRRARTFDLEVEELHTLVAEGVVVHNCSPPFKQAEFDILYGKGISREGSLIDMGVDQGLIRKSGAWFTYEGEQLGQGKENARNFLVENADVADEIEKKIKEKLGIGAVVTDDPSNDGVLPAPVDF
The experiment in a line: Fluorescence Cell-Free Homogeneous Dose Retest to Identify Inhibitors of RecA-Intein Splicing Activity. [Related pubchem assays (depositor defined):AID2097, AID2223, AID489010, AID492950]. Type of assay: functional.

Assay [5] concerns the target T5, Small ubiquitin-related modifier 1 (Homo sapiens, UniProt P63165). The experiment in a line: SUMO1 protein-protein binding blockers, potency – biochemical, FRET, dose response (AID 624383). Type of assay: functional. The conditions noted are these: read-out: IC50_Mean.
The target in assay [6] is T5, Small ubiquitin-related modifier 1. The experiment in a line: SUMO1 protein interaction blockers, potency – biochemical, fluorescence polarization, uHTS hits, dose response (AID 624382). The conditions noted are these: read-out: IC50_Mean. Type of assay: functional. A general note: Polarisation of emitted light reports the rotation of a fluorescent probe.
Assay [7] has as its target Peroxisome proliferator-activated receptor gamma/Nuclear receptor corepressor 2 (Homo sapiens, UniProt P37231+Q9Y618). The experiment in a line: Counterscreen for NR2E3 inverse agonists: TR-FRET-based biochemical high throughput dose response assay to identify inverse agonists of the interaction between peroxisome proliferator-activated receptor gamma (PPARg) and nuclear receptor co-repressor 2 (NCOR2). Type of assay: functional.

Assay [8] concerns the target Photoreceptor-specific nuclear receptor (Homo sapiens, UniProt Q9Y5X4). The experiment in a line: ligands suppressing NR2E3 nuclear receptor activity – biochemical, TR-FRET, dose response (AID 463256). Type of assay: functional. In general terms: Time-resolved FRET reads energy transfer from a long-lived donor to a nearby acceptor.

Molecules are shown by their SMILES. Activity calls are given as the source filed them.

T5 sequence (P63165 whole entry): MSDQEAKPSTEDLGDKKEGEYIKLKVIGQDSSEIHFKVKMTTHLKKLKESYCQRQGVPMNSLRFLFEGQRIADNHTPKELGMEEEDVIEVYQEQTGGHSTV
Peroxisome proliferator-activated receptor gamma/Nuclear receptor corepressor 2, sequence (P37231 whole entry): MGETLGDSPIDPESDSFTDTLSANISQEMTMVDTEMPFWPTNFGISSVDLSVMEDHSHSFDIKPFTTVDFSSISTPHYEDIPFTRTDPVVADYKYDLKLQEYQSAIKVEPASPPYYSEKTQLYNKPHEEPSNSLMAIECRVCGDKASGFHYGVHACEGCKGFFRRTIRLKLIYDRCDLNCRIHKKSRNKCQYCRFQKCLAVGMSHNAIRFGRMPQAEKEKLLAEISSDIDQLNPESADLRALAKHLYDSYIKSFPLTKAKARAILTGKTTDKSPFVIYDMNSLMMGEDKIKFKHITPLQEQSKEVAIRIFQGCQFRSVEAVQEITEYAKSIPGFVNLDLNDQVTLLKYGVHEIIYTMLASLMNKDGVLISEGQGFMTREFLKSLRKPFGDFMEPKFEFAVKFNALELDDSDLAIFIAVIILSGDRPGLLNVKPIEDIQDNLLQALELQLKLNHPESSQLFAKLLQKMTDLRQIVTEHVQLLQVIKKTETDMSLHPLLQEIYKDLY
Peroxisome proliferator-activated receptor gamma/Nuclear receptor corepressor 2, sequence (Q9Y618 whole entry): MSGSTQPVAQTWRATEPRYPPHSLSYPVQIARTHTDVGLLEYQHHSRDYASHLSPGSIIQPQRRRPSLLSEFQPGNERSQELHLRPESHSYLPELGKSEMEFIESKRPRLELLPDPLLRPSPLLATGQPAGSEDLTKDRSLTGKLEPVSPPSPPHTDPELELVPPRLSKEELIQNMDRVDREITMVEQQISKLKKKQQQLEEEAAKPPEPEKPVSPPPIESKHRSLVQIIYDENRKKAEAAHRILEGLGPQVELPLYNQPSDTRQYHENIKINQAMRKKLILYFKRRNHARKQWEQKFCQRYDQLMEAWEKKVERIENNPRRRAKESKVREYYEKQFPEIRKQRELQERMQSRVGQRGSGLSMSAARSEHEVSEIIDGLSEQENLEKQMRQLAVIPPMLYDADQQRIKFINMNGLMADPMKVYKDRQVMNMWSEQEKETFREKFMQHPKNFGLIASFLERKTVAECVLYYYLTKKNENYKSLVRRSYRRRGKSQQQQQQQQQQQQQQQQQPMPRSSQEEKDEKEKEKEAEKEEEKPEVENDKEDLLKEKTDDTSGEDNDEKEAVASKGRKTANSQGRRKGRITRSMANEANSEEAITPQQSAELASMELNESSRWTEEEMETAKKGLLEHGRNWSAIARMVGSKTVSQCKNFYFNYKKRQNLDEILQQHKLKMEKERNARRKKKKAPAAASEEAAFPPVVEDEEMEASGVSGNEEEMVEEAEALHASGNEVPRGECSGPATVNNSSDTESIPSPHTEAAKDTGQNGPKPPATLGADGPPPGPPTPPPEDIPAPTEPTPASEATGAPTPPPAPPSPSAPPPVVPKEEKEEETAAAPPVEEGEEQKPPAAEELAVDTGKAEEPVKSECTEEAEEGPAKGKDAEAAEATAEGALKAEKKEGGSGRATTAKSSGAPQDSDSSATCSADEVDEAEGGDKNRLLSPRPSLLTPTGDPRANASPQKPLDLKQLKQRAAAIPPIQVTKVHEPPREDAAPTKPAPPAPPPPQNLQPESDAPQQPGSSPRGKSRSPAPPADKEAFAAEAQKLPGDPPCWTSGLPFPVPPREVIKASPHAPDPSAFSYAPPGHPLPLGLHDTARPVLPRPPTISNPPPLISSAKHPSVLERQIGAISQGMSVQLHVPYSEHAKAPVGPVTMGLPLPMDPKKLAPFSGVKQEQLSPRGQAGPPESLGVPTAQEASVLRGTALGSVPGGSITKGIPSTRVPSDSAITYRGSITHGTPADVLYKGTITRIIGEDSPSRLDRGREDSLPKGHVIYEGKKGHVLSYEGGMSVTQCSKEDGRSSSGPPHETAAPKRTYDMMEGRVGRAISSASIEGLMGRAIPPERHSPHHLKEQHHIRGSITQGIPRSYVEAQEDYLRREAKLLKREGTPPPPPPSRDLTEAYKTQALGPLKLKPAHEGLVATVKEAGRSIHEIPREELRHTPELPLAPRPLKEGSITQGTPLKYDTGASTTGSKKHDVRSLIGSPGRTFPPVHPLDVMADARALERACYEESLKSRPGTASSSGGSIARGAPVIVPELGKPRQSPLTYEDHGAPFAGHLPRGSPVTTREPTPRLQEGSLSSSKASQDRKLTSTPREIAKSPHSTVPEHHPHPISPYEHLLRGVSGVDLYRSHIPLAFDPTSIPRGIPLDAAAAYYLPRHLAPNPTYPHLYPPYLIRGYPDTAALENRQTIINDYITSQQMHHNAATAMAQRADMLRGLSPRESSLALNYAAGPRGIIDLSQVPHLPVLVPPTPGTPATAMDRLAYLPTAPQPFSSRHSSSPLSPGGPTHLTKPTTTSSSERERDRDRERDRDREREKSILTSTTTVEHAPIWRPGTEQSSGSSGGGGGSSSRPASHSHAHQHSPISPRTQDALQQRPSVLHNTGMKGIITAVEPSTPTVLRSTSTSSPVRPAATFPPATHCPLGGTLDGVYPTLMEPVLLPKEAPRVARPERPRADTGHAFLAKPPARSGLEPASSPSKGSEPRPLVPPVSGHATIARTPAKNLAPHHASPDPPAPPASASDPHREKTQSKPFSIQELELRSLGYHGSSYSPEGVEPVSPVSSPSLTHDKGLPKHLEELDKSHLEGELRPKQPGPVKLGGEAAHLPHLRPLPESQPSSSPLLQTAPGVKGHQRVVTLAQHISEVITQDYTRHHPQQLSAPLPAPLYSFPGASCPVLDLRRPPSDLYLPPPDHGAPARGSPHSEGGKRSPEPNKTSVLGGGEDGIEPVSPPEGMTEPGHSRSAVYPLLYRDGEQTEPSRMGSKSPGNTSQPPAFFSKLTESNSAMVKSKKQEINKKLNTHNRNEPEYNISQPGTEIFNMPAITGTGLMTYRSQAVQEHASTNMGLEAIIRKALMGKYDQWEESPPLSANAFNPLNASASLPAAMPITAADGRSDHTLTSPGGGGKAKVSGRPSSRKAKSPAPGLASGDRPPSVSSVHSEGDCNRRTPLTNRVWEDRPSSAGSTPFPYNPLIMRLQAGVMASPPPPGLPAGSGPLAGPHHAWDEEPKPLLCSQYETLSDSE
Photoreceptor-specific nuclear receptor, sequence (Q9Y5X4 whole entry): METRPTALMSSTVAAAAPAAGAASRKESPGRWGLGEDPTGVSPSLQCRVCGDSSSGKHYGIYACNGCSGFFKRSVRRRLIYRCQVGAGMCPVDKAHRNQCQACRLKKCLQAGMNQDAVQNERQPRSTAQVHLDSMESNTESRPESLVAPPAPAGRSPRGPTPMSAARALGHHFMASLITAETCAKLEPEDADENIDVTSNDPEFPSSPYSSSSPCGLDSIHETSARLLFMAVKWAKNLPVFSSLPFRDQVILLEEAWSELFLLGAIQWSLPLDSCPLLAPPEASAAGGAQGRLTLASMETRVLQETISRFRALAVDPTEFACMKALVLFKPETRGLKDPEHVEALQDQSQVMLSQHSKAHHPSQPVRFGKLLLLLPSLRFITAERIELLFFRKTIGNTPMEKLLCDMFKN

Take `COc1ccc2nc(SCC(=O)NC3CCCC3)c(C)cc2c1`: the IC50 in [1] is recorded as 16 µM (not active).
`CCN(CC)c1ccc2oc(=O)c(C)nc2c1`: the AC50 in assay [2] was > 380 µM (inactive). In addition, the IC50 in assay [3] is 10 µM (active); on Protein skinhead-1, > 100 µM (inactive); in assay [4], 12.7 µM (active). Further, the EC50 at Protein RecA was 7.63 µM (active).
Turning to `Cc1ccc(NC(=O)CSc2nc3ccccc3c3nc(CCc4c(C)n[nH]c4C)nn23)cc1F`, the IC50 in assay [5] was 3.78 µM (active); in assay [6], > 66.6 µM (inactive); in assay [7], 0.356 µM (active); in [8] it was 0.474 µM (active).

In general, AC50 refers to the concentration giving half of the maximal activity seen. Usually EC50 stands for the midpoint of the concentration-response curve.
